Read-outs that look alike come from different tables or passages of the source.

The test concerns the target T1, MCH receptor (Homo sapiens, UniProt Q99705).
T1 construct: expressed in transfected cells; host or cells: CHO cells
As to the kind of experiment: MCH Receptor Binding Assay ([125I]-MCH SPA, membranes from CHO cells expressing the MCH receptor). The method, then: MCH Receptor Binding Assay:
Membranes from CHO cells expressing the MCH receptor were prepared by lysing cells with 5 mM HEPES for 15 min at 4 C. Cell lysates were centrifuged ([…], 15 min) and the pellet was resuspended in 5 mM HEPES. For each 96-well plate (Microlite, Dynex Technologies), 1 mg of cell membranes were incubated with 10 mg of wheat germ agglutinin SPA beads (Amersham) for 5 min at 4 C in a volume of 10 ml of binding buffer (25 mM HEPES, 10 mM MGCl2, 10 mM NaCl, 5 mM MnCl2, 0.1% BSA). The membrane/bead mixture was centrifuged (1500×g, 3.5 min), the supernatant was aspirated, and the pellet was resuspended in 10 ml binding buffer. The centrifugation, aspiration and resuspension were then repeated. The membrane/bead mixture (100 μl) was then added to 96-well plates containing 50 μl of 500 pM [^125I]-MCH (NEN) and […] of the appropriate concentration of compound (4× the desired final concentration). Nonspecific binding was determined by including 1 μM MCH in the binding reaction. The binding reaction was incubated at room temperature for 2 h. Plates were then analyzed in a TOPCOUNT microplate scintillation counter (Packard). Data was analyzed and Ki values were determined using GraphPad Prim.

The mark [1] stands for this setting: CHO cell membranes, [125I]-MCH, read-out: MCH Receptor Activity (Ki rating).
Where [2] appears, read: unit inferred, read-out: Ki values.

T1 sequence (Q99705 whole entry): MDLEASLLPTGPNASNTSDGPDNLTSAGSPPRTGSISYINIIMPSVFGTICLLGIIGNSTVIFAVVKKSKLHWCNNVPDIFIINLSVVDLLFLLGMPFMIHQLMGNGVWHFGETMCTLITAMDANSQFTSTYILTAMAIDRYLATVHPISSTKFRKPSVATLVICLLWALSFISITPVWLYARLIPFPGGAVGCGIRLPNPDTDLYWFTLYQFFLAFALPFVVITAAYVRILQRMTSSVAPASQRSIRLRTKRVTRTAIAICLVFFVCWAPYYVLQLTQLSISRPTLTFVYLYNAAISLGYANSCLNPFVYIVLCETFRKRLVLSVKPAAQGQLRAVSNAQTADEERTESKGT

For orientation: Ki means a dissociation constant, usually derived from enzyme kinetics or from competition with a known ligand. For `CCCOc1ccsc1C(=O)N1CCC(N2CCN([C@@H](C)c3ccc(CCc4ccc5c(c4)OCO5)cc3)[C@H](C)C2)CC1` [Example 1], the Ki under setting [1] lay within 10 to 15 nM. For the compound `CCOc1ccsc1C(=O)N1CCC(N2CCN([C@@H](C)c3ccc(-c4cc(Cl)cc(Cl)c4)cc3)[C@H](C)C2)CC1` [Example 2], the inhibition constant Ki under setting [1] was in the range of 10 to 15 nM.

With `CCCOc1ccsc1C(=O)N1CCC(C)(N2CCN([C@@H](C)c3ccc(-c4cc(Cl)cc(Cl)c4)cc3)[C@H](C)C2)CC1` [Example 3], the Ki under setting [1] is 6 to 10 nM.

`CCCOc1ccsc1C(=O)N1CCC(N2CCN([C@@H](C)c3ccc(CCc4ccc(Cl)cc4)cc3)[C@H](C)C2)CC1` [Example 4]: under setting [1], the Ki was in the range of 10 to 15 nM. The same measure, in the same setting: the same measure for `C[C@@H]1CN(C2(C)CCN(C(=O)c3sccc3OCC3CC3)CC2)CCN1[C@@H](C)c1ccc(-c2cc(Cl)cc(Cl)c2)cc1` [Example 5]: 6 to 10 nM.

Consider `CCCOc1ccsc1C(=O)N1CCC(N2CCN([C@@H](C)c3ccc(-c4cc(Cl)cc(Cl)c4)cc3)[C@H](C)C2)CC1` [Example 6], for which the inhibition constant (Ki) under setting [1] lay within 6 to 10 nM.

For the compound `CCCCOc1ccsc1C(=O)N1CCC(N2CCN([C@@H](C)c3ccc(-c4cc(Cl)cc(Cl)c4)cc3)[C@H](C)C2)CC1` [Example 7], under setting [1], the Ki lay within 10 to 15 nM. Same read-out and setting: as for `CCCCOc1ccsc1C(=O)N1CCC(N2CCN([C@@H](C)c3ccc(-c4cc(Cl)cc(Cl)c4)cc3)[C@H](C)C2)CC1` [Example 8], the figure is 6 to 10 nM. `CCCOc1ccsc1C(=O)N1CCC(N2CCN([C@@H](C)c3ccc(-c4ccc(F)c(Cl)c4)cc3)[C@H](C)C2)CC1` [Example 9]: the Ki under setting [1] was in the range of 10 to 15 nM. Still for that read-out and setting: the same measure for `CCOc1ccsc1C(=O)N1CCC(N2CCN([C@@H](C)c3ccc(-c4ccc(Cl)s4)cc3)[C@H](C)C2)CC1` [Example 10]: above 15 nM. Take `C[C@@H]1CN(C2CCN(C(=O)c3sccc3OCC3CC3)CC2)C[C@@H](C)N1Cc1ccc(-c2cc(Cl)cc(Cl)c2)cc1` [Example 11]: the inhibition constant Ki under setting [1] was above 15 nM. Turning to `C[C@@H]1CN(C2CCN(C(=O)c3sccc3OCC3CC3)CC2)CCN1[C@@H](C)c1ccc(-c2cc(Cl)cc(Cl)c2)cc1` [Example 12], under setting [1], the inhibitory constant (Ki) fell in the range of 6 to 10 nM. With `CCOc1ccsc1C(=O)N1CCC(N2CCN([C@@H](C)c3ccc(CCc4ccc(C(F)(F)F)cc4)cc3)[C@H](C)C2)CC1` [Example 13], the inhibition constant Ki under setting [1] was 6 to 10 nM. Regarding `CCCOc1ccsc1C(=O)N1CCC(N2CCN([C@@H](C)c3ccc(CCc4ccc(C(F)(F)F)cc4)cc3)[C@H](C)C2)CC1` [Example 14], under setting [1], the inhibition constant Ki lay within 6 to 10 nM. On the same count and under the same terms, the same measure for `C[C@@H]1CN(C2(C)CCN(C(=O)c3sccc3OCC3CC3)CC2)CCN1[C@@H](C)c1ccc(-c2ccncc2)cc1` [Example 15]: 6 to 10 nM.

In the case of `CCOc1ccsc1C(=O)N1CCC(N2CCN([C@@H](C)c3ccc(-c4cc(Cl)cc(Cl)c4)cc3)[C@H](C)C2)CC1C` (stereo partly drawn) [Example 16], the Ki reads like this: under setting [1], 6 to 10 nM; under setting [2], 6 nM.

For `CCOc1ccsc1C(=O)N1CCC(N2CCN([C@@H](C)c3ccc(-c4cc(Cl)cc(Cl)c4)cc3)[C@H](C)C2)CC1C` (stereo partly drawn) [Example 17], the Ki under setting [1] was above 15 nM. As to `CCOc1ccsc1C(=O)N1CCC(N2C[C@@H](C)N([C@@H](C)c3ccc(-c4cc(Cl)cc(Cl)c4)cc3)[C@H](C)C2)CC1` [Example 18], under setting [1], the Ki was in the range of 10 to 15 nM. In the case of `CCCOc1cscc1C(=O)N1CCC(N2CCN([C@@H](C)c3ccc(-c4cc(Cl)cc(Cl)c4)cc3)[C@H](C)C2)CC1` [Example 19], under setting [1], the inhibition constant Ki lay within 6 to 10 nM.

Consider `CCCOc1cscc1C(=O)N1CCC(N2CCN([C@@H](C)c3ccc(-c4cc(Cl)cc(Cl)c4)cc3)[C@H](C)C2)CC1` [Example 20], for which the Ki under setting [2] is 6 nM.

These data come from patent US7345042B2, “MCH antagonists for the treatment of obesity” (Schering Corporation, priority 2003, dated 2008).
